These results are taken from patent US12187717B2, “Compound and use thereof in treating autoimmune diseases” (PARENCHYMA BIOTECH INC., priority 2022, dated 2025).

SMILES strings stand for the structures.

The test system of experiment [1] is intestinal epithelial barrier integrity. Nature of the experiment: Mucosal healing with FITC-dextran in DSS-induced inflammatory bowel disease model. The experiment is classed as in vivo, C57BL/6 mice. The following applies: 10 mg/kg oral daily, 15th day, 4 hours after FITC-dextran, compared to solvent control. The procedure:
In order to investigate mucosal healing effects of the compounds according to an embodiment of the present invention, inflammatory bowel disease was induced in C57BL/6 mice, and a degree of recovery of intestinal epithelial harrier integrity was assessed by administering Compound 6 as follows. On day 0 of the experiment, a 2.0% DSS solution prepared by dissolving 2.0% DSS in sterile distilled water was given for drinking to C57BL/6 mice (11 weeks old, female, 20±2 g) for 7 days. The 2.0% DSS solution was changed at an interval of 2 days. Sterile distilled water was provided for drinking from the 8th day of the experiment. Body weight and severity index were measured at an interval of 2 days from the 0th day of the experiment, so as to confirm the onset of inflammatory bowel disease. […] 4 hours after oral administration, fluorescence was measured in the serum extracted from the heart (fluorometer, excitation 485490 nm, emission […]).

Experiment [2] relates to colitis-associated colorectal cancer (CA-CRC). Nature of the experiment: AOM/DSS colorectal cancer model, preventive administration. The format is in vivo, C57BL/6 mice. The note with it: 10 mg/kg oral, 7th to 20th days (prevention). As to the method:
AOM (Sigma Aldrich, Cat No. A5486) was diluted with physiological saline so as to be a concentration of 10 mg/kg, and then administered intraperitoneally to C57BL/6 mice (8 weeks old, female, 18±2 g) by […] for a total of 3 times at an interval of 7 days (Experiment day 0, 7, 14th). On the 7th day of the experiment, a 1.5% DSS solution prepared by dissolving 1.5% DSS in sterile distilled water was given for drinking to the mice for 7 days. Further, the 1.5% DSS solution was changed at an interval of 2 days. Sterile distilled water was provided for drinking from the 8th day of the experiment. In the compound 6 administration group according to an embodiment of the present invention, 10 mg/kg of Compound 6 per mouse was completely dissolved in an ethanol-Cremophor EL mixture corresponding to 7.5% (v/v) of the administered dose, and then, was diluted in phosphate buffered saline to prepare the final ethanol:Cremophor EL:phosphate buffered saline (0.375:0.375:9.25, v/v/v), followed by oral administration with 200 μl of the prepared solution. In order to confirm the preventive effect, Compound 6 was administered for a total of 14 times from the 7th to the 20th days of the experiment.

The subject of experiment [3] is graft-versus-host disease. Nature of the experiment: Graft-versus-host disease model (B6->BDF1). The note with it: 10 mg/kg oral daily, 3rd to 14th days. The format is in vivo, BDF1 mice. The procedure: The spleen of C57BL/6 mice (8 to 12 weeks old, female, 18±3 g) was excised, pulverized by adding RPMI medium, and then passed through a 40 μm cell strainer (BD Falcon), thereby obtaining a single cell suspension. The single cell suspension was centrifuged (1200 rpm, 5 minutes), and after discarding the supematant, 1 ml of ACK (ammonium chloride/potassium bicarbonate) lysis buffer (0.15 M NH4Cl, 1 mM KHCO3, 0.1 mM Na2 EDTA) was added, followed by stirring for 1 minute and then washing the same with RPMI medium. After centrifugation, the cell suspension was reacted on mouse CD90.2 microbeads (Miltenyi Biotec, Cat No. 130-121-278) at 4° C. for 20 minutes. After complementation of the reaction, the cell suspension was centrifuged, washed with 10 ml of autoMACS® Running Buffer (Miltenyi Biotec, Cat No. 130-091-221), and then resuspended with 3 ml of autoMACS® Running Buffer. Then, CD90.2^+ T cells were obtained from the cell suspension using Auto MACS pro (Miltenyi Biotec) (positive selection). […]
The graft-versus-host disease severity index was evaluated at an interval of 3 to 4 days by visual observation in a severity index system that was classified into a total of 10 points with 0 to 2 points for each item of weight reduction, hair condition, posture, activity and skin change.

Take `O=C(Cc1c[nH]c2ccc(Cl)cc12)Nc1nc2ccc(N3CCOCC3)cc2s1` [Compound 6, 2-(5-chloro-1H-indol-3-yl)-N-(6-morpholinobenzo[d]thiazol-2-yl)acetamide]: the “Serum FITC-dextran” value in experiment [1] is “significantly decreased”. For the same compound, the body weight entry in experiment [2] (after 70 days) is “increase in the body weight similar to that of normal mice”. In experiment [2] (vs control), the number of tumors entry is “significantly smaller” and the size of tumors entry is “significantly smaller”. In addition, the “colon tissue inflammatory pathology index” value in experiment [3] is “significantly decreased”. In experiment [3] (total of 10 points, solvent control 8±1), the “severity index of graft-versus-host disease” value amounted to 2.2±1.2.
